Experimental data: ChEMBL document CHEMBL1135089, “Nonpeptide alpha(v)beta(3) antagonists. Part 2: constrained glycyl amides derived from the RGD tripeptide” (Bioorg Med Chem Lett, 2002)

Columns and labels:
Integrin alpha-V/beta-3 = Integrin alpha-V/beta-3 (Homo sapiens, UniProt P05106+P06756); assay: Displacement of a non-peptide radioligand from human recombinant alphaV-beta3 integrin; type: protein-complex assay
Mus musculus = species on record: Mus musculus; assay: The ability of compound to inhibit the transformation of osteoblast-like cells originally derived from mouse calvaria, into osteoclasts by OCFORM assay; type: functional, cell-based

Integrin alpha-V/beta-3, sequence (P05106 27-788 limits assumed): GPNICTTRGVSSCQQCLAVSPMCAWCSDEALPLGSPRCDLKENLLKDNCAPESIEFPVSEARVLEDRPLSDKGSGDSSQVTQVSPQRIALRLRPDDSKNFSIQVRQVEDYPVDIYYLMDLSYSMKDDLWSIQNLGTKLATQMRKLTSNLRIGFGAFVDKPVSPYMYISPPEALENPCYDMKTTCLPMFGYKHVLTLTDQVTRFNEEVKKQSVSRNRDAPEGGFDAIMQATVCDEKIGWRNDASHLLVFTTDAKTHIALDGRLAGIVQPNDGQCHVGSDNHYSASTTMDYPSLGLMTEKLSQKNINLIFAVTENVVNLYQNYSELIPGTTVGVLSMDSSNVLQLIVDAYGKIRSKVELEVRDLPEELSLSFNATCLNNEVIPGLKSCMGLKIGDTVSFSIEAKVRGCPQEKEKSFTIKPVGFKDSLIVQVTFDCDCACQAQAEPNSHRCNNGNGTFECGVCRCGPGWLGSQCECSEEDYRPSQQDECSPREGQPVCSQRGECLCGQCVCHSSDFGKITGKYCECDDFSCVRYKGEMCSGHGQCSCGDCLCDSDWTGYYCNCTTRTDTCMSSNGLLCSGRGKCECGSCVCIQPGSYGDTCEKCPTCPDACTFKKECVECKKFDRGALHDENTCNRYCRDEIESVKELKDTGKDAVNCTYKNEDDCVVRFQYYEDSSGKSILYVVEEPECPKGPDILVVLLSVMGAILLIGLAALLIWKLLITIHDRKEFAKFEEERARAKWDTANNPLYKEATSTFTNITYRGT
Integrin alpha-V/beta-3, sequence (P06756 31-889 limits assumed): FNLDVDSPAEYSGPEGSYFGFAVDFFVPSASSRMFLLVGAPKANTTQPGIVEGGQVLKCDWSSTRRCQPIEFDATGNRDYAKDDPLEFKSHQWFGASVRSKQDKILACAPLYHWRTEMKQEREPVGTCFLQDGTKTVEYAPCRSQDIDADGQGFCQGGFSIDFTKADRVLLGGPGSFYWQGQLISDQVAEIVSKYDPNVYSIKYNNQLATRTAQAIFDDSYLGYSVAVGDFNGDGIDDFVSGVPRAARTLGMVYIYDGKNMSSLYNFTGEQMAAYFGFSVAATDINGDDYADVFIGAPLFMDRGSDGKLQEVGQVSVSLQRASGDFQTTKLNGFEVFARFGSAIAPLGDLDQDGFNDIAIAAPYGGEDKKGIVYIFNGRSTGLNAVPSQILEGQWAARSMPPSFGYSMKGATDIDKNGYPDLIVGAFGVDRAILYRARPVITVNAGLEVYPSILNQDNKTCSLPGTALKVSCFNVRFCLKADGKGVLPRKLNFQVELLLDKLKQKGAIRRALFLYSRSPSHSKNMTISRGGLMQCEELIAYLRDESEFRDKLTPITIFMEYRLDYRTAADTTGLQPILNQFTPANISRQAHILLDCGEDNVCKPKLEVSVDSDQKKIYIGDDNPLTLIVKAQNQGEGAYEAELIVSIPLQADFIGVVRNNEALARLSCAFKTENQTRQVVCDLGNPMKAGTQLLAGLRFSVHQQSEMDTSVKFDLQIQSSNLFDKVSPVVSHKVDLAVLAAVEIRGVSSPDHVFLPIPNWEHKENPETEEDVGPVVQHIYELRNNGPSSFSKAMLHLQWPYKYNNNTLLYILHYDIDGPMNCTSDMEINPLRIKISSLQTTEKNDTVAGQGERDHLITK
Integrin alpha-V/beta-3, sequence (P06756 891-1048 limits assumed): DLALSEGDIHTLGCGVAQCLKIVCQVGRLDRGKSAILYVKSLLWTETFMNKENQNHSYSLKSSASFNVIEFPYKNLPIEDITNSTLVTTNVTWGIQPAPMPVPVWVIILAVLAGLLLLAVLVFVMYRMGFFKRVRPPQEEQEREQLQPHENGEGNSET

With C#C[C@H](CC(=O)O)NC(=O)CNC(=O)CCCc1ccc2c(n1)NCCC2 the IC50 (Integrin alpha-V/beta-3) was 8.8 nM.

In the case of N=C(N)NCCC[C@H](N)C(=O)NCC(=O)N[C@@H](CC(=O)O)C(=O)O, the IC50 (Integrin alpha-V/beta-3) is reported as > 10000 nM.

Molecule O=C(O)C[C@H](NC(=O)CN1CCCC(CCc2ccc3c(n2)NCCC3)C1=O)c1cccnc1 (some centres undefined) has an IC50 (Integrin alpha-V/beta-3) of 1.2 nM and an IC50 (Mus musculus) of 480 nM.

N=C(N)NCCCCC(=O)NCC(=O)NCCC(=O)O was tested, and the IC50 (Integrin alpha-V/beta-3) was > 10000 nM.

Molecule C#C[C@H](CC(=O)O)NC(=O)CN1CC[C@H](CCc2ccc3c(n2)NCCC3)C1=O has an IC50 (Integrin alpha-V/beta-3) of 2.9 nM and an IC50 (Mus musculus) of 150 nM.

For O=C(O)C[C@H](NC(=O)CN1CC[C@@H](CCc2ccc3c(n2)NCCC3)C1=O)c1cccnc1, the IC50 (Integrin alpha-V/beta-3) was 0.94 nM and the IC50 (Mus musculus) was 79 nM.

In the case of O=C(O)CCNC(=O)CNC(=O)CCCc1ccc2c(n1)NCCC2, the IC50 (Integrin alpha-V/beta-3) is reported as 111 nM.

O=C(O)C[C@H](NC(=O)CN1CC[C@H](CCc2ccc3c(n2)NCCC3)C1=O)c1cccnc1 showed an IC50 (Mus musculus) of 62 nM.

In the case of O=C(O)C[C@H](NC(=O)CN1CCN(CCc2ccc3c(n2)NCCC3)C1=O)c1cccnc1, the IC50 (Integrin alpha-V/beta-3) is reported as 12 nM and the IC50 (Mus musculus) is reported as > 1000 nM.

In the case of O=C(O)C[C@H](NC(=O)CNC(=O)CCCc1ccc2c(n1)NCCC2)c1cccnc1, the IC50 (Integrin alpha-V/beta-3) is reported as 1.3 nM.
